# Reference: US20060135472A1, “Use of water-soluble polymers to improve stability of diiodomethyl-para-tolylsulfone in complex matrices” (priority 2004, published 2006)
# Key:
# fungi = details: wide variety of fungi; cited from earlier work
# [1] = cited from earlier work
# [2] = Stability of DITS in a generic shampoo matrix after storage at 40° C. for 8 weeks, by HPLC; type: physicochemical
# Procedure: All analytical data were obtained by high performance liquid chromatography (“HPLC”) analysis for content for diiodomethyl-p-tolylsulfone (DITS) and monoiodomethyl-p-tolylsulfone (MITS). Analysis was done on an Agilent HP system using a Phenomenex Bondclone 10 micron C18 reverse phase column (300×3.9 mm, 10 microns) at a flow rate of 2 mL/min, isocratic 55% acetonitrile in water for 17 min. Under these conditions DITS elutes at 3.9-4.3 min and MITS elutes at 2.9-3.3 min, depending on the shampoo matrix. […]
# To a 250 mL glass jar were added 24.81 g water and 0.2526 g SL 400. The mixture was stirred vigorously for 1.5 h. Then, 1.0302 g milled AMICAL™ diiodomethyl-para-tolylsulfone was added, and the mixture was stirred for an additional 1.5 hours. After that, the premix was heated to 68° C. in a hot water bath, and a pre-blended mixture of Standapol* EA-3 (32.98 g), Standapol* A (11.16 g), and LAA (16.70 g) was added with agitation. 12.9 g of DI water was added next, and stirring was continued in the hot water bath. After 10 min, […] to adjust the pH. After an additional 10 min, the temperature of the mixture was recorded (68° C.) and the heating was stopped. The mixture was stirred on high speed for another hour, until it cooled. At that point, 0.31 g Glydant* and 0.30 g fragrance were added, and the sample was adjusted with water to 100 g formulation. Stirring continued for another hour. […]
# This procedure was followed for all the polymers listed in Table 1, at the stated polymer concentration. In all cases, AMICAL™ 48 milled to a D50=2 microns was used (diiodomethyl-p-tolylsulfone content 92.5%). Detailed here is the example involving SOFTCAT™ SL 400 at 0.25% concentration.
# To a 250 mL glass jar were added 24.82 g water and 0.2644 g SOFTCAT™ SL 400. The mixture was stirred vigorously for 1.5 h. Separately, in a 250 mL beaker were combined Standapol* EA-3 (33.57 g), Standapol* A (11.08 g), and LAA (16.13 g). The mixture was stirred vigorously using an overhead stirrer, and after 10 min, 1.0120 g milled DITS (AMICAL™ 48) was added, followed by 5.0 g water. The DITS-surfactant blend was stirred for 1.25 hours. After that, the DITS—surfactant blend was added with agitation to the polymer solution which had been heated to 58° C. in a hot water bath. 8.12 g of deionized water was added next, and stirring was continued in the hot water bath. After 10 min, 1 mL of a 10% aqueous citric acid solution was added to adjust the pH. After an additional 15 min, the temperature of the mixture was recorded (58° C.) and the heating was stopped. The mixture was stirred on high speed for another hour, until it cooled. At that point, 0.44 g Glydant* and 0.3 g fragrance were added, and the sample was adjusted with water to 100 g formulation. […]
structure (smiles),measurement,setting,value
"Cc1ccc(S(=O)(=O)C(I)I)cc1 [DITS, diiodomethyl-para-tolylsulfone]",minimum inhibitory concentration,fungi,less than 10 ppm
same,water solubility,[1],less than 10 ppm
same,DITS content after storage (HPLC),"[2]; Example 4, no polymer control, 8 week at 40° C.",0.44%
same,DITS content at time zero (HPLC),"[2]; Example 4, no polymer control, time zero",1.02%
same,decomposition,"[2]; control samples formulated without polymer, shampoo matrix, 8 weeks at 40° C.",~60%
same,% DITS left when added to surfactant blend,"[2]; generic shampoo matrix, 40° C. for 8 weeks, no polymer (control, Example 4)",43.2%
